# Key:
# Brustkrebs bei Ratten = test: Prevention of nitrosomethylurea-induced mammary cancer in rats; format: in vivo, Sprague-Dawley Ratten; conditions: nitrosomethylurea 50 mg/kg i.v., 2 mmol/kg diet from day 3, 12 weeks
# tracheal cartilage = conditions: toxicity to tracheal cartilage in vitro; from Nature 263, 110-113 (1976); read-out: celluläre Toxizitätsschwelle (Konzentration); cited from earlier work
# [1] = test system: durch Vitamin A-Hypovitaminose keratinisierten Hamstertrachealgewebe; conditions: hamster tracheal tissue keratinised by vitamin A deficiency; active only at this concentration; cited from earlier work
Compound,Zahl der Tumoren (Brustkrebs bei Ratten; all tumours),"Zahl der Tumoren davon größer als 1,0 g (Brustkrebs bei Ratten; tumours > 1,0 g)","Zahl der Tumoren größer als 0,100 g (Brustkrebs bei Ratten; tumours > 0,100 g)",MCC (tracheal cartilage),"Konzentration, in der Aktivität vorliegt [1]"
"CC1=C(/C=C/C(C)=C/C=C/C(C)=C/CNC(=O)c2ccccc2)C(C)(C)CCC1 [Benzoyl-retinylamin, N-Benzoyl-all-E-Retinylamin]",10,2,4,,
CC(=O)NCC=C(C)C=CC=C(C)C=CC1=C(C)CCCC1(C)C [N-Acetyl-retinylamin],,,,> 10 µM,9.10^-9 molar

# From patent publication EP0010209A1, “N-Benzoyl-retinyl amines, process for their preparation, pharmaceutical compositions comprising them and the use of these compounds for the therapy and prophylaxis of precanceroses and carcinomas of the skin” (BASF Aktiengesellschaft, priority 1978, dated 1980)
